Reference: patent US20160053026A1, “METHODS FOR TREATING INFECTION BY HPV” (STC.UNM, priority 2011, published 2016)

How the values were obtained:
EGFR = assay: Immunoblot for p-EGFR after EGF stimulation in HPV[+] and HPV[−] keratinocytes; format: cell-based, human; conditions: cetuximab 100 μg/mL or PD98059 25 μM; 10 ng/mL EGF in SFM, 5 or 15 minutes; SG3 (HPV16[+]) and NIKS (HPV[−]) cells
Experimental: (§1) FIG. 5. […] Mock=No EGF. Cell lysates were harvested and subjected to SDS-PAGE and immunoblot for p-EGFR, total EGFR, p-ERK1/2 and GAPDH, a loading control.
(§2) Western blot was performed (FIG. 5) and cell viability determined with MTT assay and clonogenic assays performed as described (FIG. 7) (Meira et al., 2009, Euro J Cancer 45:1265-1273).

p-ERK1/2 = assay: Immunoblot for p-ERK1/2 (MAPK signaling) after EGF stimulation in HPV[+] and HPV[−] keratinocytes; format: cell-based, human; conditions: cetuximab 100 μg/mL or PD98059 25 μM; 10 ng/mL EGF in SFM, 5 or 15 minutes; SG3 (HPV16[+]) and NIKS (HPV[−]) cells
Experimental: as §1, §2

[1] = tested on: HPV[+] human keratinocytes; assay: MTT cell viability assay, HPV[+] cells; format: cell-based; conditions: cetuximab 50, 100, 200 μg/mL; PD98059 12.5, 25, 50 μM; MTT after 72 hours (seven days)
Experimental: (§3) FIG. 7. […] The boxes indicate the same concentrations used in the FIG. 3 and FIG. 5. MTT assays were performed to assess cell viability. Error bars represent SEM (N=3).
as §2
(§4) The proliferative capacity of MAPK inhibitor-treated cells compared to untreated cells was measured by MTT assay after 72 hours to determine the surviving fractions (FIG. 7).

[2] = tested on: HPV[−] human keratinocytes; assay: MTT cell viability assay, HPV[−] cells; format: cell-based; conditions: cetuximab 50, 100, 200 μg/mL; PD98059 12.5, 25, 50 μM; MTT after 72 hours (seven days)
Experimental: as §3, §2, §4

HPV16 E1^E4 early mRNA = assay: RT-qPCR of HPV16 E1^E4 early mRNA in HPV[+] HFK cells; format: cell-based; conditions: cetuximab 100 μg/mL or PD98059 25 μM, 24-96 hours
Experimental: HPV16 E1̂E4 early mRNA levels in response to treatment with EGFR or MAPK inhibitors. […] Total RNA harvested at indicated time points was subjected to RT and then to qPCR for β-actin and HPV16 E1̂E4 quantification. […] Data are the result of two separate experiments.
Total RNA harvested at 24 hours, 48 hours, 72 hours, or 96 hours was subjected to RT and then to qPCR for β-actin and HPV16 E1̂E4 quantification.
(§5) TURBO DNA-free Kit (Ambion) to remove co-purifying viral and cellular DNA. Reverse transcription (RT) of total RNAs (0.2-0.5 μg) was performed using random hexamer primers and ABI reagents (Applied Biosystems). For quantitative PCR (qPCR), 2 μl of each cDNA or total DNA was analyzed in triplicate using the SYBR Green I kit on the iCycler (Bio-Rad Laboratories, Inc., Hercules, Calif.).

HPV16 viral genome = assay: qPCR of HPV16 LCR (viral genome number) in HPV[+] HFK cells; format: cell-based; conditions: cetuximab 100 μg/mL or PD98059 25 μM, two to six days after treatment
Text: Response of HPV16 viral genome number to EGFR or MAPK Inhibitors. […] Total DNA harvested at indicated time points was subjected to qPCR for HPV16 LCR quantification. […] Data are the result of 2 separate experiments. (* p<0.05, ** p<0.01).
Total DNA harvested at two days, three days, four days, five days, or six days after treatment was subjected to qPCR (SYBR Green I kit on the BioRad iCycler) for HPV16 LCR quantification. […] Total RNAs were extracted from cells using TRIzol (Invitrogen), and processed with the
as §5

COc1cccc(-c2cc(=O)c3ccccc3o2)c1N [PD98059]
EGFR activation (p-EGFR) (EGFR): did not affect EGFR activation
downstream / MAPK signaling (p-ERK1/2) (p-ERK1/2): blocked MAPK signaling
viability of HPV[+] cells (MTT) [1]: dose-dependent decrease in viability
viability of HPV[−] cells (MTT) [2]: dose-dependent decrease in viability
HPV16 E1^E4 transcript levels (HPV16 E1^E4 early mRNA): decrease is statistically significant after 48 hours of treatment
HPV16 genome levels (LCR qPCR) compared to mock treated (HPV16 viral genome): statistically significant decrease in HPV16 genome levels
